Square brackets hold non-standard residues; d marks the D form. Peptide text beside a SMILES is read from it. * marks the point of attachment. Benzoyl(4-CF3) = O=C(c1ccc(C(F)(F)F)cc1)*; X10 = CN(C)[C@H](Cc1ccc(O)cc1)C(=O)*; Cyclohexylacetyl = O=C(CC1CCCCC1)*; Tic = O=C(O)[C@@H]1Cc2ccccc2CN1; NMeL = CN[C@@H](CC(C)C)C(=O)O; Nva = CCC[C@H](N)C(=O)O; Hexanoyl = CCCCCC(=O)*

The first assay concerns the target T1, human Chemokine like receptor 1 (Homo sapiens, UniProt Q99788).
T1 construct: host or cells: U2OS (Tango CMKLR1-bla U2OS)
T1 sequence (Q99788 1-373): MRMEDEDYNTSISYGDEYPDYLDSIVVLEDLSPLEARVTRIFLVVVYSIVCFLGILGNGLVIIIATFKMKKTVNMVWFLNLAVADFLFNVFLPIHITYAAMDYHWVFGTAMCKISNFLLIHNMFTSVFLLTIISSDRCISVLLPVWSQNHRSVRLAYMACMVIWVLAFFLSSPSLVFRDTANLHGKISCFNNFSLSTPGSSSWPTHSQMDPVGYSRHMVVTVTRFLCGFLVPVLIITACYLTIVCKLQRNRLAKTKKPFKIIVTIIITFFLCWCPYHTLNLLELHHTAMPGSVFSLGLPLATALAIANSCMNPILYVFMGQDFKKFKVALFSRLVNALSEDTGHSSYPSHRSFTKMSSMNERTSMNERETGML
In words: Activation of Tango CMKLR1-bla U2OS cells (beta-lactamase FRET reporter).
Details: not given
In kind it is cell-based. The procedure, abridged: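 Agonist mode in Tango CMKLR1-bla U2OS cells, 10000 cells/well seeded overnight, then 10-point 3-fold compound dilutions from 10 mM DMSO stock applied for 4 h at 37 °C, 5% CO2. Beta-lactamase reporter read with CCF4-AM FRET substrate; peptide (D-Tyr)-Phe-Leu-Pro-(D-Ser)-Gln-Phe-(D-Ala)-Tic-Ser served as positive control.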
For `CCC[C@H](NC(=O)[C@H](Cc1ccccc1)NC(=O)[C@H](N)Cc1ccc(O)cc1)C(=O)N1CCC[C@H]1C(=O)N[C@H](CO)C(=O)N[C@@H](CCC(N)=O)C(=O)N[C@@H](Cc1ccccc1)C(=O)N[C@H](C)C(=O)N1Cc2ccccc2C[C@H]1C(=O)N[C@@H](CO)C(=O)O` [YW-196, (D-Tyr)-Phe-Nva-Pro-(D-Ser)-Gln-Phe-(D-Ala)-Tic-Ser] (H-[dY]F[Nva]P[dS]QF[dA][Tic]S-OH), a half-maximal effect (EC50) was put at 39 nM.

The same assay, now with this note: determination by the method of Effect Embodiment 1; read-out: EC50.
With `CC(C)C[C@H](NC(=O)[C@H](Cc1ccccc1)NC(=O)[C@H](N)Cc1ccc(O)cc1)C(=O)N1CCC[C@H]1C(=O)N[C@H](CO)C(=O)N[C@@H](CCC(N)=O)C(=O)N[C@@H](Cc1ccccc1)C(=O)N[C@H](C)C(=O)N1Cc2ccccc2C[C@H]1C(=O)N[C@@H](CO)C(N)=O` [YW-189, (D-Tyr)-Phe-Leu-Pro-(D-Ser)-Gln-Phe-(D-Ala)-Tic-Ser-NH2] (H-[dY]FLP[dS]QF[dA][Tic]S-NH2; N-terminus assumed), the EC50 came out at 6.8 nM.

Turning to `CC(C)C[C@@H](C(=O)N1CCC[C@H]1C(=O)N[C@H](CO)C(=O)N[C@@H](CCC(N)=O)C(=O)N[C@@H](Cc1ccccc1)C(=O)N[C@H](C)C(=O)N1Cc2ccccc2C[C@H]1C(=O)N[C@@H](CO)C(N)=O)N(C)C(=O)[C@H](Cc1ccccc1)NC(=O)[C@H](N)Cc1ccc(O)cc1` [YW-190, (D-Tyr)-Phe-(NMe-Leu)-Pro-(D-Ser)-Gln-Phe-(D-Ala)-Tic-Ser-NH2] (H-[dY]F[NMeL]P[dS]QF[dA][Tic]S-NH2; N-terminus assumed), the EC50 amounted to 2.7 nM.

Consider `CC(C)C[C@@H](C(=O)N1CCC[C@H]1C(=O)N[C@H](CO)C(=O)N[C@@H](CCC(N)=O)C(=O)N[C@@H](Cc1ccccc1)C(=O)N[C@H](C)C(=O)N1Cc2ccccc2C[C@H]1C(=O)N[C@@H](CO)C(=O)O)N(C)C(=O)[C@H](Cc1ccccc1)NC(=O)[C@@H](Cc1ccc(O)cc1)N(C)C` [YW-192, DiMe-(D-Tyr)-Phe-(NMe-Leu)-Pro-(D-Ser)-Gln-Phe-(D-Ala)-Tic-Ser] (X10-F[NMeL]P[dS]QF[dA][Tic]S-OH), for which the EC50 was found to be 2.6 nM.

For the molecule `CCCCCC(=O)N[C@H](Cc1ccc(O)cc1)C(=O)N[C@@H](Cc1ccccc1)C(=O)N(C)[C@@H](CC(C)C)C(=O)N1CCC[C@H]1C(=O)N[C@H](CO)C(=O)N[C@@H](CCC(N)=O)C(=O)N[C@@H](Cc1ccccc1)C(=O)N[C@H](C)C(=O)N1Cc2ccccc2C[C@H]1C(=O)N[C@@H](CO)C(=O)O` [YW-193, Hexanoyl-(D-Tyr)-Phe-(NMe-Leu)-Pro-(D-Ser)-Gln-Phe-(D-Ala)-Tic-Ser] (Hexanoyl-[dY]F[NMeL]P[dS]QF[dA][Tic]S-OH), the EC50 was determined as 1.4 nM.

Turning to `CC(C)C[C@@H](C(=O)N1CCC[C@H]1C(=O)N[C@H](CO)C(=O)N[C@@H](CCC(N)=O)C(=O)N[C@@H](Cc1ccccc1)C(=O)N[C@H](C)C(=O)N1Cc2ccccc2C[C@H]1C(=O)N[C@@H](CO)C(=O)O)N(C)C(=O)[C@H](Cc1ccccc1)NC(=O)[C@@H](Cc1ccc(O)cc1)NC(=O)CC1CCCCC1` [YW-194, (2-Cyclohexylacetyl)-(D-Tyr)-Phe-(NMe-Leu)-Pro-(D-Ser)-Gln-Phe-(D-Ala)-Tic-Ser] (Cyclohexylacetyl-[dY]F[NMeL]P[dS]QF[dA][Tic]S-OH), the EC50 is 1.2 nM.

On to `CC(C)C[C@@H](C(=O)N1CCC[C@H]1C(=O)N[C@H](CO)C(=O)N[C@@H](CCC(N)=O)C(=O)N[C@@H](Cc1ccccc1)C(=O)N[C@H](C)C(=O)N1Cc2ccccc2C[C@H]1C(=O)N[C@@H](CO)C(=O)O)N(C)C(=O)[C@H](Cc1ccccc1)NC(=O)[C@@H](Cc1ccc(O)cc1)NC(=O)c1ccc(C(F)(F)F)cc1` [YW-195, 4-(trifluoromethyl)benzoyl-(D-Tyr)-Phe-(NMe-Leu)-Pro-(D-Ser)-Gln-Phe-(D-Ala)-Tic-Ser] ({Benzoyl(4-CF3)}-[dY]F[NMeL]P[dS]QF[dA][Tic]S-OH), for which the EC50 was 0.8 nM.

The values are drawn from patent US12129312B2, “Peptide compound, application thereof and composition containing same” (priority 2017, dated 2024).
